Test results taken from PubChem BioAssay AID1845211 (Molecular Pharmacology Branch, DTP, NCI, 2023).
pIC50: −log10 of the molar value. “And” between values parts separate entries of the source, which are not always exact repeats. Equal entries are not always repeated.

Test system: NCI-H322M multicellular tumor spheroids, viability (% test/control)
Assay: Anticancer human tumor NCI-H322M cell line growth inhibition;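 as to viability, T/C: spheroids exposed to compound for seven days before readout; 100% = DMSO vehicle control wells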
Conditions: for viability, T/C: stronger effect = lower value
Source text: Multicellular complex tumor spheroid response to DNA repair inhibitors in combination with DNA-damaging drugs
This study explores the anticancer activities of DNA-damaging drugs and inhibitors of DNA damage repair, both as single agents and in combinations. Complex tumor spheroids comprised of malignant cells, endothelial cells and mesenchymal stem cells served as an in vitro model for human solid tumors. This model system incorporates physiologically relevant features and patient-derived or established malignant cell lines with clinically relevant genetic alterations from many tumor types. Twenty-six patient-derived or established malignant cell lines were evaluated representing sarcoma, melanoma, small cell lung cancer (SCLC), non-small cell lung cancer (NSCLC), as well as bladder, ovarian and pancreatic cancers. The concentration ranges selected for each drug and investigational agent were based upon clinically achievable concentrations if the clinical Cmax of the agent was known.
Compounds. The drugs and compounds olaparib (NSC753686), talazoparib (NSC767125), berzosertib (NSC777718), elimusertib (NSC800525), nedisertib (NSC802822), VX-984 (NSC792969), AZD-1390 (NSC803789), temozolomide (NSC362856), topotecan (NSC609699), trabectedin (NSC813783), staurosporine (NSC755774), and gemcitabine (NSC613327) were obtained from the National Cancer Institute (NCI) Developmental Therapeutics Program Chemical Repository. The FDA-approved anticancer drug set is available from the Developmental Therapeutics Program at https://dtp.cancer.gov/organization/dscb/obtaining/available_plates.htm. […] The stock solutions were prepared in dimethyl sulfoxide (DMSO, Sigma-Aldrich, St. Louis, MO, cat. D2650) at 400-fold the tested concentration and stored at -70 degrees C. Prior to their use, the stock solutions were diluted in fresh medium and the final DMSO concentration in the assay was 0.25% (v/v). All drugs and investigational agents were tested over a range starting from a high concentration at or near the clinical Cmax and decreasing in half-log increments. If the clinical Cmax for an agent had not been determined, the highest concentration tested was 10 microM.
Cell Lines. The patient-derived cancer cell (PDC) lines: 156681-154-R-J1-PDC, 283228-195-R-J1-PDC, 287954-098-R-J1-PDC, 292921-168-R-J2-PDC, 349418-098-R-PDC, 425362-245-T-J1-PDC, 556581-035-R-J1-PDC, and BL0293-F563-PDC were received from the NCI Patient-Derived Models Repository (PDMR, https://pdmr.cancer.gov). The established cell lines HS-SY-2 (RRID:CVCL_8719), MPNST, and SYO-1 (RRID:CVCL_7146) were obtained from the Sloan Kettering Institute. The alveolar soft parts sarcoma cell line ASPS-1 (RRID:CVCL_S738) was established at the NCI and grown from internal seed stocks. The following established cell lines were purchased from the American Type Culture Collection (ATCC, Manassas, VA): G-401 (ATCC, cat. CRL-1441, RRID:CVCL_0270), SW982 (ATCC, cat. HTB-93, RRID:CVCL_1734), VA-ES-BJ (ATCC, cat. CRL-2138, RRID:CVCL_1785), NCI-H719 (ATCC, cat. CRL-5837, RRID:CVCL_1582), NCI-H196 (ATCC, cat. CRL-5823, RRID:CVCL_1509), NCI-H841 (ATCC, cat. CRL-5845, RRID:CVCL_1595), NCI-H1618 (ATCC, cat. CRL-5879, RRID:CVCL_1480), NCI-H1876 (ATCC, cat. CRL-5902, RRID:CVCL_1503), DMS 114 (ATCC, cat. CRL-2066; RRID:CVCL_1174), NCI-H211 (ATCC, cat. CRL-5824; RRID:CVCL_1529), and SW 1271 (ATCC, cat. CRL-2177, RRID:CVCL_1716). The small cell lung cancer cell line COR-L88 was purchased from Sigma-Aldrich (cat. 92031917-1VL, RRID:CVCL_1141). The non-small cell lung cancer cell lines NCI-H226 (RRID:CVCL_1544) and NCI-H322M (RRID:CVCL_1557) were established at the NCI and grown from internal seed stocks. Pooled donor human umbilical vein endothelial cells (HUVEC, Lonza, cat. CC-2519) and human mesenchymal stem cells (hMSC, Lonza, cat. PT-2501) were purchased from Lonza (Walkersville, MD).
Cell Culture. All cells were maintained in an incubator at 37 degrees C and 5% CO2 with 95% humidity. […]

[1] = curve of first compound, second compound 0.003 µM
[2] = curve of first compound, second compound 0.00949 µM
[3] = curve of first compound, second compound 0.03 µM
[4] = curve of first compound, second compound 0.0949 µM
[5] = curve of first compound, second compound 0.3 µM
[6] = second compound 0.003 µM, first compound 0.00949 µM
[7] = second compound 0.003 µM, first compound 0.03 µM
[8] = second compound 0.003 µM, first compound 0.0949 µM
[9] = second compound 0.003 µM, first compound 0.3 µM
[10] = second compound 0.003 µM, first compound 0.949 µM
[11] = second compound 0.003 µM, first compound 3 µM
[12] = second compound 0.00949 µM, first compound 0.00949 µM
[13] = second compound 0.00949 µM, first compound 0.03 µM
[14] = second compound 0.00949 µM, first compound 0.0949 µM
[15] = second compound 0.00949 µM, first compound 0.3 µM
[16] = second compound 0.00949 µM, first compound 0.949 µM
[17] = second compound 0.00949 µM, first compound 3 µM
[18] = second compound 0.03 µM, first compound 0.00949 µM
[19] = second compound 0.03 µM, first compound 0.03 µM
[20] = second compound 0.03 µM, first compound 0.0949 µM
[21] = second compound 0.03 µM, first compound 0.3 µM
[22] = second compound 0.03 µM, first compound 0.949 µM
[23] = second compound 0.03 µM, first compound 3 µM
[24] = second compound 0.0949 µM, first compound 0.00949 µM
[25] = second compound 0.0949 µM, first compound 0.03 µM
[26] = second compound 0.0949 µM, first compound 0.0949 µM
[27] = second compound 0.0949 µM, first compound 0.3 µM
[28] = second compound 0.0949 µM, first compound 0.949 µM
[29] = second compound 0.0949 µM, first compound 3 µM
[30] = second compound 0.3 µM, first compound 0.00949 µM
[31] = second compound 0.3 µM, first compound 0.03 µM
[32] = second compound 0.3 µM, first compound 0.0949 µM
[33] = second compound 0.3 µM, first compound 0.3 µM
[34] = second compound 0.3 µM, first compound 0.949 µM
[35] = second compound 0.3 µM, first compound 3 µM

## CNCc1ccc(-c2cc(-c3nc(-c4ccc(S(=O)(=O)C(C)C)cc4)cnc3N)on2)cc1 + CC[C@@]1(O)C(=O)OCc2c1cc1n(c2=O)Cc2cc3c(CN(C)C)c(O)ccc3nc2-1
[1]
  pIC50: < 5.52
[2]
  pIC50: < 5.52
[3]
  pIC50: < 5.52
[4]
  pIC50: < 5.52
[5]
  pIC50: 5.83
[6]
  viability, T/C: 79.2%
[7]
  viability, T/C: 93.3%
[8]
  viability, T/C: 96%
[9]
  viability, T/C: 79.7%
[10]
  viability, T/C: 78%
[11]
  viability, T/C: 85.6%
[12]
  viability, T/C: 95.3%
[13]
  viability, T/C: 87.9%
[14]
  viability, T/C: 83.7%
[15]
  viability, T/C: 75.4%
[16]
  viability, T/C: 81.3%
[17]
  viability, T/C: 85.7%
[18]
  viability, T/C: 88.4%
[19]
  viability, T/C: 74.7%
[20]
  viability, T/C: 85.5%
[21]
  viability, T/C: 69.1%
[22]
  viability, T/C: 86%
[23]
  viability, T/C: 86.6%
[24]
  viability, T/C: 69.3%
[25]
  viability, T/C: 66%
[26]
  viability, T/C: 61.3%
[27]
  viability, T/C: 74.2%
[28]
  viability, T/C: 59.7%
[29]
  viability, T/C: 69.1%
[30]
  viability, T/C: 55.2%
[31]
  viability, T/C: 56.4%
[32]
  viability, T/C: 59.1%
[33]
  viability, T/C: 54.7%
[34]
  viability, T/C: 51.7%
[35]
  viability, T/C: 46.2%

## COc1cc(C)[nH]c(=O)c1CN1CCc2c(Cl)cc(C(OC)C3COC3)c(Cl)c2C1=O (configuration not stated) + CC[C@@]1(O)C(=O)OCc2c1cc1n(c2=O)Cc2cc3c(CN(C)C)c(O)ccc3nc2-1
[1]
  pIC50: < 5.00
[2]
  pIC50: < 5.00
[3]
  pIC50: < 5.00
[4]
  pIC50: < 5.00
[5]
  pIC50: 5.01
Second compound 0.003 µM, first compound 0.0316 µM
  viability, T/C: 79.2%
Second compound 0.003 µM, first compound 0.1 µM
  viability, T/C: 75.4%
Second compound 0.003 µM, first compound 0.316 µM
  viability, T/C: 74.4%
Second compound 0.003 µM, first compound 1 µM
  viability, T/C: 73.1%
Second compound 0.003 µM, first compound 3.16 µM
  viability, T/C: 84.3%
Second compound 0.003 µM, first compound 10 µM
  viability, T/C: 88%
Second compound 0.00949 µM, first compound 0.0316 µM
  viability, T/C: 83.9%
Second compound 0.00949 µM, first compound 0.1 µM
  viability, T/C: 65.2%
Second compound 0.00949 µM, first compound 0.316 µM
  viability, T/C: 65.2%
Second compound 0.00949 µM, first compound 1 µM
  viability, T/C: 74%
Second compound 0.00949 µM, first compound 3.16 µM
  viability, T/C: 78.6%
Second compound 0.00949 µM, first compound 10 µM
  viability, T/C: 89.6%
Second compound 0.03 µM, first compound 0.0316 µM
  viability, T/C: 69%
Second compound 0.03 µM, first compound 0.1 µM
  viability, T/C: 68.8%
Second compound 0.03 µM, first compound 0.316 µM
  viability, T/C: 72.8%
Second compound 0.03 µM, first compound 1 µM
  viability, T/C: 69.3%
Second compound 0.03 µM, first compound 3.16 µM
  viability, T/C: 73.4%
Second compound 0.03 µM, first compound 10 µM
  viability, T/C: 71.7%
Second compound 0.0949 µM, first compound 0.0316 µM
  viability, T/C: 72%
Second compound 0.0949 µM, first compound 0.1 µM
  viability, T/C: 66.9%
Second compound 0.0949 µM, first compound 0.316 µM
  viability, T/C: 70.8%
Second compound 0.0949 µM, first compound 1 µM
  viability, T/C: 58.1%
Second compound 0.0949 µM, first compound 3.16 µM
  viability, T/C: 65.4%
Second compound 0.0949 µM, first compound 10 µM
  viability, T/C: 71.2%
Second compound 0.3 µM, first compound 0.0316 µM
  viability, T/C: 60.5%
Second compound 0.3 µM, first compound 0.1 µM
  viability, T/C: 49.9%
Second compound 0.3 µM, first compound 0.316 µM
  viability, T/C: 48.5%
Second compound 0.3 µM, first compound 1 µM
  viability, T/C: 48.5%
Second compound 0.3 µM, first compound 3.16 µM
  viability, T/C: 54.9%
Second compound 0.3 µM, first compound 10 µM
  viability, T/C: 50.3%

## Cn1ncnc1[C@H]1c2n[nH]c(=O)c3cc(F)cc(c23)N[C@@H]1c1ccc(F)cc1 + CC[C@@]1(O)C(=O)OCc2c1cc1n(c2=O)Cc2cc3c(CN(C)C)c(O)ccc3nc2-1
[1]
  pIC50: < 5.52
[2]
  pIC50: < 5.52
[3]
  pIC50: < 5.52
[4]
  pIC50: 5.79
[5]
  pIC50: 8.02
[6]
  viability, T/C: 84.3%
[7]
  viability, T/C: 87.1%
[8]
  viability, T/C: 89.6%
[9]
  viability, T/C: 71.9%
[10]
  viability, T/C: 79.6%
[11]
  viability, T/C: 68.6%
[12]
  viability, T/C: 85.1%
[13]
  viability, T/C: 78.2%
[14]
  viability, T/C: 80.6%
[15]
  viability, T/C: 73.7%
[16]
  viability, T/C: 69%
[17]
  viability, T/C: 70.7%
[18]
  viability, T/C: 76.6%
[19]
  viability, T/C: 72.5%
[20]
  viability, T/C: 78.4%
[21]
  viability, T/C: 70.2%
[22]
  viability, T/C: 63.7%
[23]
  viability, T/C: 65%
[24]
  viability, T/C: 67.4%
[25]
  viability, T/C: 56.3%
[26]
  viability, T/C: 59.4%
[27]
  viability, T/C: 51.5%
[28]
  viability, T/C: 51.2%
[29]
  viability, T/C: 50.2%
[30]
  viability, T/C: 50.8%
[31]
  viability, T/C: 46.2%
[32]
  viability, T/C: 49.2%
[33]
  viability, T/C: 49.9%
[34]
  viability, T/C: 47%
[35]
  viability, T/C: 44.1%

## Cn1ncnc1[C@H]1c2n[nH]c(=O)c3cc(F)cc(c23)N[C@@H]1c1ccc(F)cc1
Compound 0.00949 µM
  viability, T/C: 90.1% and 93.2% and 85.8%
Compound 0.03 µM
  viability, T/C: 88.6% and 91.6% and 90.2%
Compound 0.0949 µM
  viability, T/C: 79.9% and 77.7% and 81%
Compound 0.3 µM
  viability, T/C: 95.3% and 83.4% and 83%
Compound 0.949 µM
  viability, T/C: 81.9% and 79.7% and 75.5%
Compound 3 µM
  viability, T/C: 70% and 66.2% and 68.7%
Curve of compound
  pIC50: < 5.52
